Source: patent US9562268B2, “Risk assessment for adverse drug reactions” (Academia Sinica, priority 2003, dated 2017)
Where two headings read alike, the source gives them in different places.

Columns and labels:
HLA-Cw*0302 = conditions: human, in vivo
Protocol: (§1) A total of 112 SJS/TEN patients were recruited either from Chang Gung Memorial Hospital or from several other medical centers throughout Taiwan. […] Drug taking history including dosage and duration, and the phenotypes of adverse drug reactions were recorded. The diagnostic criteria of clinical morphology were defined according to Roujeau (Roujeau J C, 1994). We define SJS as skin detachment of less than 10% of body-surface area, overlap SJS-TEN as skin detachment of 10-30%, and TEN as greater than 30%. SJS, overlap SJS-TEN and TEN are collectively referred to as SJS/TEN.
(§2) 73 tegretol-tolerant patients were included as controls. Volunteers from the general population of Taiwanese (n=94; age range: 20 to 80 years) were also recruited. The study was approved by the institutional review board, and informed consent was obtained.
(§3) Reagents for reverse lineblot sequence-specific oligonucleotide (SSO) were purchased from DYNAL Biotech Ltd. (Bromborough, UK) and used for HLA genotyping. Briefly, a PCR product was generated using biotinylated primer pairs for the second and the third exons of the HLA class I or class II loci, and then hybridized to a lineblot of SSO of probes immobilized on a nylon membrane. The presence of biotinylated PCR product bound to a specific probe is detected using streptavidin-horseradish peroxidase (HRP) and a chromogenic, soluble substrate to produce a blue “line” at the position of the positive probe. The probe reactivity pattern was interpreted by the genotyping software Dynal RELI™ SSO (DYNAL Biotech Ltd.; Bromborough, UK). Potential ambiguities were further resolved by sequence-based typing and DNA sequencing performed according to the IHWG Technical Manual (International Histocompatibility Working Group).

HLA-Cw*0801 = conditions: human, in vivo
Protocol: as §1, §2, §3

HLA-Cw*0806 = conditions: human, in vivo
Protocol: as §1, §2, §3

HLA-DRB1*1202 = assay: Equivalent genetic marker incidence in patients with ADRs: HLA-DRB1*1202; assay type: in vivo, human; conditions: SJS/TEN patients who received the drug
Protocol: as §1, §2
(§4) Reagents for reverse lineblot sequence-specific oligonucleotide (SSO) were purchased from DYNAL Biotech Ltd. (Bromborough, UK) and used for HLA genotyping. […] The presence of biotinylated PCR product bound to a specific probe is detected using streptavidin-horseradish peroxidase (HRP) and a chromogenic, soluble substrate to produce a blue “line” at the position of the positive probe. […]

HLA-B*4601 = system: HLA-B*4601
Protocol: as §1, §2, §3
Allele frequencies in the different groups were compared by the Chi-square method with Yates correction by constructing 2×2 tables. P values were corrected for comparisons of multiple HLA alleles (Pc) by multiplying the raw P values by the observed number of HLA alleles present within the loci. Odds ratios were calculated with Haldane's modification, which adds 0.5 to all cells to accommodate possible zero counts.

HLA-A*1101 = assay: Equivalent genetic marker incidence in patients with ADRs: HLA-A*1101; assay type: in vivo, human; conditions: SJS/TEN patients who received the drug
Protocol: as §1, §2, §4

[1] = patients with milder cutaneous reactions to the drug (n = 16)

Row | SMILES | HLA-Cw*0302 frequency (HLA-Cw*0302) [%] | Number of patients carrying HLA-Cw*0302 (HLA-Cw*0302) | HLA-Cw*0801 frequency (HLA-Cw*0801) [%] | Number of patients carrying HLA-Cw*0801 (HLA-Cw*0801) | HLA-Cw*0806 frequency (HLA-Cw*0806) | Number of patients carrying HLA-Cw*0806 (HLA-Cw*0806) | HLA-DRB1*1202 frequency (HLA-DRB1*1202) [%] | Number of patients carrying HLA-DRB1*1202 (HLA-DRB1*1202) | HLA-B*4601 frequency (HLA-B*4601; drug-tolerant group (n = 73)) [%] | Number of patients carrying HLA-B*4601 (HLA-B*4601; drug-tolerant group (n = 73)) | HLA-B*4601 frequency (HLA-B*4601; [1]) [%] | Number of patients carrying HLA-B*4601 (HLA-B*4601; [1]) | odds ratio, B*4601 associated drug-induced milder cutaneous ADRs (HLA-B*4601; versus drug-tolerant group) | HLA-A*1101 frequency (HLA-A*1101) [%] | Number of patients carrying HLA-A*1101 (HLA-A*1101)
1 | Oc1ncnc2[nH]ncc12 [allopurinol] | 82 | 14 | 11.7 | 2 | 0(0%) | 0(0%) | – | – | – | – | – | – | – | – | –
2 | NC(=O)N1c2ccccc2C=Cc2ccccc21 [carbamazepine] | – | – | – | – | – | – | 83.3 | 35 | 26 | 19 | 62.5 | 10 | 4.73 | 73.8 | 31
